Measurements from patent publication US20240294876A1, “METHODS FOR THE EXPANSION OF HUMAN GRANULOCYTE-MACROPHAGE PROGENITORS AND APPLICATIONS THEREOF” (University of Southern California, priority 2021, published 2024).

Assays:
mouse GMPs = assay: Ex vivo expansion of mouse bone marrow-derived cells / mouse GMPs; assay type: cell-based
Text: (A) Schematic of the experimental design to identify growth factors and small molecules that can promote expansion of mouse bone marrow-derived stem cells. (B) Representative phase-contrast images of mouse bone marrow cells cultured in N2B27 supplemented with the indicated small molecule inhibitors for 7 days. (C) Representative phase-contrast images of mouse bone marrow cells cultured in N2B27 supplemented with SCF plus GDC0879 or SB590885 for 3 passages. (D) Cell growth curves. Bone marrow cells isolated from C57BL/6J mice were plated into 24-well plates at a density of 2×10^5 cells/well and cultured in B7 medium supplemented with the indicated small molecules/growth factor. Cells were counted and passaged every 3 days. Data are represented as mean±SD from three independent experiments. (E) Bone marrow cells isolated from C57BL/6J mice were cultured in B7 medium supplemented with SCF/2i. Cells were passaged every 3 days. Representative phase-contrast pictures showing SCF/2i cells at different passages. (F) Cytogenetic analysis of SCF/2i cells using the GWT banding method. Bone marrow cells isolated from a female C57BL/6J mouse were expanded in SCF/2i for 8 passages before used for cytogenetic analysis. […] (G) Sequential images of individual bone marrow cells during expansion in B7 medium supplemented with SCF/2i. SCF/2i-expanded bone marrow cells were plated into 96-well plates at a density of 50 cells/well and cultured in SCF/2i. Sequential images were taken using the Keyence BZ-X710 microscopy every 24 hours. 15.7±4.0 colonies formed per well on day 4 (n=3×96). Data are represented as mean±SD from three independent experiments.
Mouse GMP derivation, expansion, and differentiation. Cells were cultured at 37° C. in a 5% CO2 water jacket incubator (Thermo Scientific). Bone marrow cells isolated from C57BL/6J, mTmG or CAG-Cas9-EGFP mice were plated into 6-well plates at a density of 2×10^6 cells/well and cultured in 2 mL B7 medium supplemented with 50 ng/mL SCF, 1 μM GDC-0879, and 10 μM SKL2001 (SCF/2i). After 3-4 days, cells were dissociated into single-cell suspension by pipetting up and down and replated into 6-well plates at a density of 2×10^6 cells/well and cultured in 2 mL B7 medium supplemented with SCF/2i. After 2 passages in SCF/2i, the majority of cells were GMPs. GMPs were routinely passaged every 3 days. To induce differentiation, GMPs were plated into 10 cm tissue culture dishes and cultured in RPMI-1640 medium containing 10% FBS and supplemented with either 20 ng/mL M-CSF (for macrophage differentiation) or 20 ng/mL G-CSF (for granulocyte differentiation). GMP-derived macrophages were harvested on day 7 (medium was changed once on day 4) and GMP-derived granulocytes were harvested on day 3 and used for the further experiments.
Development of defined conditions for the long-term ex vivo expansion of hematopoietic stem/progenitor cells. To develop conditions for the long-term expansion of stem or progenitor cells of the hematopoietic system, screening was conducted to identify small molecules and growth factors/cytokines that can promote their ex vivo expansion (see FIG. 3A). Specifically, bone marrow cells isolated from adult C57BL/6 mice were plated into 96-well plates in serum-free N2B27 medium. Then a first-round small molecule screening was performed. It was reasoned that if a small molecule can block differentiation or promote expansion of stem cells, these stem cells should form colonies with a uniform cell morphology. […] Upon passaging, however, no new colonies were formed in culture with any of the 5 small molecule inhibitors. A second-round screening was conducted to identify growth factors/cytokines that could further improve the expansion of the colonies.
More importantly, these cells could be expanded robustly at clonal density (see FIG. 3G).
SCF/2i-expanded cells are GMPs. […]

human GMPs = assay: Ex vivo expansion of human GMPs sorted from cord blood; assay type: cell-based; conditions: added to SCF/GDC-0879
Text: (A) Growth curves of human GMPs. Human GMPs were FACS sorted from cord blood and cultured in the designated conditions. Cells were passaged every 3 days and replated into 12-well plates at a density of 1×10^5 cells/well. Data are represented as mean±SD from three independent experiments. (B) Structure of TN-2-30. (C) Representative phase-contrast images of human GMPs cultured in modified SCF/2i. P, passage number. (D) Sorted human GMPs were expanded in modified SCF/2i and induced to differentiate towards granulocytes by treatment with 30 ng/ml human G-CSF for 10 days. Differentiated cells were analyzed by Giemsa staining (upper panel) and flow cytometry (lower panel). Flow cytometry data are represented as mean±SD from three independent experiments. (E) Relative MPO activities of human GMPs and human GMP-derived granulocytes stimulated with or without PMA for 2 hours. Differentiated cells generated in (D) were plated into 96-well plates at a density of 2×10^4 cells/well and stimulated with or without PMA for 2 hours, after which MPO activities in the supernatants were measured. Data are represented as mean±SD from three independent experiments. […] (H) Differentiated cells generated in (D) and (F) were plated into 96-well plates at a density of 2×10^4 cells/well and stimulated with or without 500 ng/ml LPS for 6 hours, after which cytokine secretion in the supernatants was measured by ELISA. […]

For `O=C(NCCCn1ccnc1)c1cc(-c2ccco2)on1` [SKL2001], which “long-term expansion of a uniform cell population” value (mouse GMPs; combined with SCF and GDC-0879) is on record?
The value was “allowed for the long-term expansion”.

What about the “interaction with GDC-0879 in promoting expansion of the uniform round-shaped cells” value (mouse GMPs; second screening, with GDC-0879) of the same compound?
The value was “acted synergistically”.

And the “requirement for expansion of β-catenin knockout mouse GMPs” value (mouse GMPs; β-catenin knockout mouse GMPs)?
The value was “still required the addition of SKL2001”.

What about the “effect of addition on expansion of human GMPs” value (human GMPs) of the same compound?
Its value is “only marginally improved”.
